In US20080146540A1, “Methods of diagnosis and treatment for asthma, allergic rhinitis and other respiratory diseases based on haplotype association” (priority 2003, published 2008):

Legend:
Assay type in all cases: in vivo, human
asthma patients = assay: Phase II clinical study CEP-1347-201: methacholine challenge test (MCT; PC20 ANCOVA, survival analysis, model based EC50 analysis, AUC analysis); settings: for Percent of subjects with an increase in the AUC for the methacholine dose-response curve (AUCPost > AUCPre): after 8 weeks, placebo 33%; for median event-causing (20% drop in FEV1) methacholine concentration, PC20 survival analysis at week 8: placebo 3.0, log-rank p=0.02; for % Shift in EC50 (methacholine): model based analysis, vs placebo EC50; for Patients with Censored PC20 / Patients with PC20: week 8; for PC20 Change from Baseline at Week 8, LS Mean: ANCOVA, actual + imputed PC20
Description: A methacholine challenge test (MCT) was conducted at baseline and at the end of the 8-week treatment period in a subset of patients. The MCT test was not undertaken if, in the opinion of the investigator, MCT administration was contraindicated based on the patient's condition or the patient declined to participate. Patients that underwent a MCT were exposed to escalating doses of methacholine (methacholine administration typically leads to an acute decrease in lung function) and changes in lung function were measured by FEV1. The dose of methacholine was escalated until FEV1 decreased by 20% or the maximum MCT dose was reached. The dose of methacholine that produced a 20% decrease in FEV1 (PC20) was recorded. The change in FEV1 associated with each administration/dose of methacholine was recorded
The methacholine challenge test was conducted in a subset of patients at baseline and at the end of the 8-week treatment period.
In these cases the highest methacholine dose the patient received was assumed to be the PC20.
A 20% drop in FEV1 (PC20) was considered to be an event observation and the methacholine dose was treated as the “survival time” variable in the survival analysis. […] A Kaplan-Meier's product-limit estimate of the survival curve was generated; treatment effects were compared using a standard log-rank test; and baseline MCT information was ignored.
To make use of all methacholine-FEVI data a post hoc, model based analysis (i.e., nonlinear mixed effects model) was undertaken. The goal of the model based analysis was to estimate the magnitude of CEP-1347 effect on the patient's sensitivity to methacholine.
• the approach is more complex and less widely accepted compared to ANCOVA or survival analysis approaches • assumptions regarding the model structure are necessary • the suppressive effect of methacholine on lung functions was assumed to follow a classic inhibitory EMAX model, • the attenuating effect of CEP-1347 was assumed to shift an individual's EC50 or sensitivity to methacholine.
The model based analysis utilized 2202 FEV1 measurements following methacholine dosing. MCT data were available from 123 patients corresponding to approximately 17.9 observations per patient.
FEV1=E0*(1−EMAX*MET^γ/(EC50^γ+MET^γ))+ε(1) (Eq. 1)
Where, E0 was the FEV1 associated with a methacholine dose of 0, MET was the methacholine dose, EMAX was the maximum fractional suppression of FEV1 by methacholine, EC50 was the methacholine concentration at which 50% of maximal suppression was achieved, γ was the Hill coefficient, and ε (1) was the residual error term.
Inter-subject random effects were included on EMAX and EC50. […] Subsequently, the effect of CEP-1347 on the methacholine dose-response was added to the model. […] In other words, this model based approach asks the questions “Does CEP-1347 cause a patient to be less sensitive to methacholine (i.e., increase the individual patient's methacholine EC50)”. For the purposes of this model based analysis equation 2 describes the implementation of the CEP-1347 effect on the attenuation of the methacholine dose-response relationship:
Model selection was done on the basis of the log likelihood criterion (p<0.05) and visual inspection of goodness-of-fit plots. The difference in −2 times the log of the likelihood (−2LL) between a full and reduced model is asymptotically χ^2 distributed with degrees of freedom equal to the difference in number of parameters between the two models.

[1] = tested on: exhaled nitric oxide (eNO); assay: Phase II clinical study CEP-1347-201: exhaled nitric oxide (eNO) change from baseline; settings: for eNO Change from Baseline at Week 8, LS Mean: ANCOVA
Source text: eNO has been used as a biomarker for measuring airways inflammation. eNO correlates with eosinophilic inflammation in asthmatic patients and is increased in patients with untreated asthma and decreased with corticosteroid treatment.

IL-6 = assay: Phase II clinical study CEP-1347-201: sputum IL-6; settings: samples not collected in a systematic manner

Compound: CCSCc1ccc2c(c1)c1c3c(c4c5cc(CSCC)ccc5n5c4c1n2C1CC(O)(C(=O)OC)C5(C)O1)CNC3=O (stereo not shown) [CEP-1347]
- Percent of subjects with an increase in the AUC for the methacholine dose-response curve (AUCPost > AUCPre) (asthma patients; 10 mg BID, Cochran-Mantel-Haenzel p = 0.075, logistic regression p = 0.039): 55%
- median event-causing (20% drop in FEV1) methacholine concentration, PC20 survival analysis at week 8 (asthma patients; 10 mg BID, 95% confidence interval (0.85,+∞)): 3.7 µg/mL
- % Shift in EC50 (methacholine) (asthma patients; 10 mg BID): −40%
- Patients with Censored PC20 (asthma patients; 10 mg BID): 11 (39%) n (% of treatment group)
- Patients with PC20 (asthma patients; 10 mg BID): 17 (61%) n (% of treatment group)
- Percent of subjects with an increase in the AUC for the methacholine dose-response curve (AUCPost > AUCPre) (asthma patients; 25 mg BID): 58%
- median event-causing (20% drop in FEV1) methacholine concentration, PC20 survival analysis at week 8 (asthma patients; 25 mg BID, 95% confidence interval (1.87,+∞)): 6.8 µg/mL
- % Shift in EC50 (methacholine) (asthma patients; 25 mg BID): 21%
- Patients with Censored PC20 (asthma patients; 25 mg BID): 8 (47%) n (% of treatment group)
- Patients with PC20 (asthma patients; 25 mg BID): 9 (53%) n (% of treatment group)
- PC20 change from baseline at week 8 (ANCOVA) (asthma patients; 50 mg BID group): seemingly worsened
- Percent of subjects with an increase in the AUC for the methacholine dose-response curve (AUCPost > AUCPre) (asthma patients; 50 mg BID): 59%
- median event-causing (20% drop in FEV1) methacholine concentration, PC20 survival analysis at week 8 (asthma patients; 50 mg BID, 95% confidence interval (0.6, 3.0)): 0.85 µg/mL
- % Shift in EC50 (methacholine) (asthma patients; 50 mg BID): 43%
- increase of the methacholine EC50 (shift of methacholine-FEV1 dose-response curve to the right), model based analysis (asthma patients; 50 mg BID, nonlinear mixed effects model, effect size estimates imprecise): 43%
- Patients with Censored PC20 (asthma patients; 50 mg BID): 3 (14%) n (% of treatment group)
- Patients with PC20 (asthma patients; 50 mg BID): 18 (86%) n (% of treatment group)
- PC20 Change from Baseline at Week 8, LS Mean (asthma patients; CEP-1347 10 mg BID, p .66): 1.00
- PC20 Change from Baseline at Week 8, LS Mean (asthma patients; CEP-1347 25 mg BID, p .77): 1.84
- PC20 Change from Baseline at Week 8, LS Mean (asthma patients; CEP-1347 50 mg BID, p .02): −1.18
- Summary of MCT analyses: ANCOVA, Results and Comments (asthma patients; PC20 at baseline and week 8): Not significant.
- PC20 change from baseline at week 8 (ANCOVA) (asthma patients; all CEP-1347 groups vs placebo, PC20 imputed as highest methacholine dose where no 20% FEV1 decline): No clinical or statistically significant improvement
- effect on methacholine effects on FEV1, model based analysis (asthma patients; all doses, full vs reduced model p=0.02): dose related attenuation
- eNO Change from Baseline at Week 8, LS Mean ([1]; 10 mg BID, p 0.26): −4.86
- eNO Change from Baseline at Week 8, LS Mean ([1]; 25 mg BID, p 0.86): −1.88
- eNO Change from Baseline at Week 8, LS Mean ([1]; 50 mg BID, p 0.58): −3.08
- eNO change from baseline at week 8 (ANCOVA) ([1]; all CEP-1347 treatment groups relative to placebo, none of the changes achieved statistical significance): greater decrease
- sputum IL-6 (ANCOVA) (IL-6): no clear treatment related trends or statistically significant changes
